Experiments:
Assay in all cases: relative viability (nuclei count vs DMSO), 5 days (fraction); higher = more cells survive
[1] = compound: C=CCc1cccc(/C=N/NC(=O)CN2CCN(Cc3ccccc3)CC2)c1O [PAC-1] + CC(=O)Nc1cccc(-n2c(=O)n(C3CC3)c(=O)c3c(Nc4ccc(I)cc4F)n(C)c(=O)c(C)c32)c1 [Trametinib] (partner 0.02 µM)
Method in brief: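 A single step with final 0.05% Triton X-100, 1% formaldehyde and 1 ug/ml Hoechst fixed the cells and stained nuclei 5 days after treatment. Lung cancer cell lines in 1536-well plates had been treated by pin tool the day after seeding with one drug alone or a fixed anchor-drug dose plus five library-drug doses (not always all listed) in √10 steps, and nuclei were counted on 4× images. Relative viability is the ratio of nuclei in treated wells to nuclei in vehicle wells, taken as the median of duplicate plates.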

[2] = compound: C=CC(=O)Nc1cc(-n2c(=O)ccc3cnc4ccc(-c5ccc(NS(C)(=O)=O)cc5)cc4c32)ccc1C [BMX-IN-1]
Method in brief: (§1)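 Cells of lung cancer lines were placed in 1536-well plates and kept overnight at 37 °C. Pinning then delivered five library-drug doses (not always all listed), spaced by √10, onto plates anchored with vehicle, and the cells were left 5 days without changing medium. One step fixed, permeabilised and stained them with Hoechst, and MetaXpress counted nuclei in 4× images. Viability, as a median over plates, is treated-well nuclei divided by vehicle-well nuclei, with acceptance only at control CV below 25% and at least one doubling.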

[3] = compound: C=CC(=O)N1CCC[C@@H](n2nc(-c3ccc(Oc4ccccc4)cc3)c3c(N)ncnc32)C1 [Ibrutinib]
Method in brief: as §1

[4] = compound: C=CCc1cccc(/C=N/NC(=O)CN2CCN(Cc3ccccc3)CC2)c1O [PAC-1]
Method in brief: as §1

Question: Which relative viability ([1]; first compound 0.02 µM) does the source give for SK-MES-1 here?
Answer: 0.498

Question: What about the relative viability ([1]; first compound 0.06325 µM) of the same cell line?
Answer: 0.529

Question: And the relative viability ([1]; first compound 0.2 µM)?
Answer: 0.543

Question: And the relative viability ([1]; first compound 2 µM)?
Answer: 0.622

Question: And the relative viability ([2]; 0.02 µM)?
Answer: 1.1

Question: And the relative viability ([2]; 0.2 µM)?
Answer: 1.1

Question: What about the relative viability ([2]; 0.6325 µM) of the same cell line?
Answer: 1.11

Question: And the relative viability ([2]; 2 µM)?
Answer: 0.998

Question: What about the relative viability ([3]; 0.01581 µM) of the same cell line?
Answer: 0.989

Question: And the relative viability ([3]; 0.05 µM)?
Answer: 0.888

Question: And the relative viability ([3]; 0.1581 µM)?
Answer: 1.02

Question: What about the relative viability ([3]; 0.5 µM) of the same cell line?
Answer: 0.543

Question: And the relative viability ([4]; 0.02 µM)?
Answer: 0.974

Question: And the relative viability ([4]; 0.06325 µM)?
Answer: 0.987

Question: And the relative viability ([4]; 0.2 µM)?
Answer: 0.94

Question: And the relative viability ([4]; 2 µM)?
Answer: 1.02

Source: the supplement of paper PMC10307832
